In US10597388B2, “Pyridazinone herbicides” (FMC CORPORATION, priority 2014, dated 2020):

Tests used:
Assay type in all cases: in vivo
[1] = system: barnyardgrass (Echinochloa crus-galli); experiment: Test A greenhouse herbicide test, pre- and postemergence
Method in brief: (§1)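 Seeds in loam–sand blend received a preemergence directed soil spray; plants at 2–10 cm, one- to two-leaf stage, received postemergence sprays. Compounds in a non-phytotoxic solvent with surfactant. After about 10 d in a greenhouse, injury rated visually versus untreated controls on a 0–100 scale (100 = complete control).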

kochia (Kochia scoparia) = experiment: as above
Method in brief: as §1

corn (Zea mays) = experiment: Test C greenhouse herbicide test, pre- and postemergence
Method in brief: (§2)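 Pre- and postemergence greenhouse screen; values are visual control ratings, 0 meaning no effect and 100 complete kill, assigned relative to untreated plants after 13 to 15 d.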

[2] = system: crabgrass, large (large crabgrass, Digitaria sanguinalis); experiment: as above
Method in brief: as §2

[3] = system: foxtail, giant (giant foxtail, Setaria faberii); experiment: as above
Method in brief: as §2

[4] = system: johnsongrass (Sorghum halepense); experiment: as above
Method in brief: as §2

[5] = system: lambsquarters (Chenopodium album); experiment: as above
Method in brief: as §2

[6] = system: morningglory (Ipomoea coccinea); experiment: as above
Method in brief: as §2

[7] = system: oilseed rape (Brassica napus); experiment: as above
Method in brief: as §2

[8] = system: waterhemp (common waterhemp, Amaranthus rudis); experiment: as above
Method in brief: as §2

[9] = system: wheat (winter wheat, Triticum aestivum); experiment: as above
Method in brief: as §2

[10] = Postemergence, 125 g ai/ha, 0 to 100 scale where 0 is no effect and 100 is complete control
[11] = Postemergence, 500 g ai/ha, visual rating after approx. 10 d, 0 to 100 scale (0 no effect, 100 complete control)
[12] = Preemergence, 125 g ai/ha, 0 to 100 scale where 0 is no effect and 100 is complete control
[13] = Preemergence, 500 g ai/ha, 0 to 100 scale where 0 is no effect and 100 is complete control
[14] = Postemergence, 31 g ai/ha, scale 0 to 100 (0 no effect, 100 complete control)
[15] = Postemergence, 62 g ai/ha, 0 to 100 scale (0 no effect, 100 complete control)
[16] = Postemergence, 125 g ai/ha, scale 0 to 100, 0 is no effect, 100 is complete control
[17] = Postemergence, 250 g ai/ha, scale 0 to 100, 0 no effect, 100 complete control, 13 to 15 d
[18] = Postemergence, 500 g ai/ha, 0 to 100 scale, 0 is no effect, 100 is complete control
[19] = Preemergence, 500 g ai/ha, 0 to 100 scale, 0 no effect, 100 complete control
[20] = Postemergence, 31 g ai/ha, 0 to 100 scale (0 no effect, 100 complete control)
[21] = Preemergence, 31 g ai/ha, scale 0 to 100, 0 is no effect, 100 is complete control
[22] = Preemergence, 62 g ai/ha, scale 0 to 100, 0 is no effect, 100 is complete control
[23] = Preemergence, 125 g ai/ha, scale 0 to 100, 0 is no effect, 100 is complete control
[24] = Preemergence, 250 g ai/ha, scale 0 to 100, 0 no effect, 100 complete control
[25] = postemergence, 62 g ai/ha, scale 0 to 100, 0 no effect, 100 complete control

Cc1nn(C)c(=O)c(-c2cccc3ccc(Br)cc23)c1O [Compound 126]
Plant response rating, Barnyardgrass [1, 10]: 30
Plant response rating, Barnyardgrass [1, 11]: 60
Barnyardgrass plant response rating [1, 12]: 40
Plant response rating, Barnyardgrass [1, 13]: 80
Plant response rating, Kochia (kochia (Kochia scoparia); [10]): 90
Plant response rating, Kochia (kochia (Kochia scoparia); [11]): 90
Kochia plant response rating (kochia (Kochia scoparia); [12]): 50
Plant response rating, Kochia (kochia (Kochia scoparia); [13]): 90
Plant response rating, Corn (corn (Zea mays); [14]): 10
Corn plant response rating (corn (Zea mays); [15]): 10
Plant response rating, Corn (corn (Zea mays); [16]): 20
Plant response rating, Corn (corn (Zea mays); [17]): 25
Plant response rating, Crabgrass, Large [2, 14]: 10
Crabgrass, Large plant response rating [2, 15]: 20
Plant response rating, Crabgrass, Large [2, 16]: 30
Plant response rating, Crabgrass, Large [2, 17]: 30
Plant response rating, Foxtail, Giant [3, 14]: 5
Foxtail, Giant plant response rating [3, 15]: 15
Plant response rating, Foxtail, Giant [3, 16]: 15
Plant response rating, Foxtail, Giant [3, 17]: 25
Plant response rating, Johnsongrass [4, 14]: 10
Johnsongrass plant response rating [4, 15]: 10
Plant response rating, Johnsongrass [4, 16]: 15
Plant response rating, Johnsongrass [4, 17]: 25
Plant response rating, Lambsquarters [5, 14]: 80
Lambsquarters plant response rating [5, 15]: 95
Plant response rating, Lambsquarters [5, 16]: 95
Plant response rating, Lambsquarters [5, 17]: 95
Plant response rating, Morningglory [6, 14]: 95
Morningglory plant response rating [6, 15]: 95
Plant response rating, Morningglory [6, 16]: 98
Plant response rating, Morningglory [6, 17]: 98
Plant response rating, Oilseed Rape [7, 14]: 60
Oilseed Rape plant response rating [7, 15]: 80
Plant response rating, Oilseed Rape [7, 16]: 60
Plant response rating, Oilseed Rape [7, 17]: 85
Plant response rating, Waterhemp [8, 14]: 75
Waterhemp plant response rating [8, 15]: 90
Plant response rating, Waterhemp [8, 16]: 95
Plant response rating, Waterhemp [8, 17]: 100
Plant response rating, Wheat [9, 14]: 0
Wheat plant response rating [9, 15]: 0
Plant response rating, Wheat [9, 16]: 0
Plant response rating, Wheat [9, 17]: 5

Cc1ccc2sc(C)c(-c3c(OC(=O)OC(C)C)c(C)nn(C)c3=O)c2c1 [Compound 66]
Plant response rating, Barnyardgrass [1, 10]: 20
Barnyardgrass plant response rating [1, 18]: 90
Barnyardgrass plant response rating [1, 12]: 20
Plant response rating, Barnyardgrass [1, 19]: 70
Plant response rating, Kochia (kochia (Kochia scoparia); [10]): 90
Kochia plant response rating (kochia (Kochia scoparia); [18]): 90
Kochia plant response rating (kochia (Kochia scoparia); [12]): 60
Plant response rating, Kochia (kochia (Kochia scoparia); [19]): 70
Corn plant response rating (corn (Zea mays); [20]): 0
Plant response rating, Corn (corn (Zea mays); [16]): 5
Plant response rating, Corn (corn (Zea mays); [17]): 25
Plant response rating, Corn (corn (Zea mays); [21]): 0
Plant response rating, Corn (corn (Zea mays); [22]): 0
Plant response rating, Corn (corn (Zea mays); [23]): 0
Corn plant response rating (corn (Zea mays); [24]): 0
Corn plant response rating (corn (Zea mays); [25]): 0
Crabgrass, Large plant response rating [2, 20]: 25
Plant response rating, Crabgrass, Large [2, 16]: 35
Plant response rating, Crabgrass, Large [2, 17]: 45
Plant response rating, Crabgrass, Large [2, 21]: 75
Plant response rating, Crabgrass, Large [2, 22]: 65
Plant response rating, Crabgrass, Large [2, 23]: 75
Crabgrass, Large plant response rating [2, 24]: 85
Crabgrass, Large plant response rating [2, 25]: 30
Foxtail, Giant plant response rating [3, 20]: 40
Plant response rating, Foxtail, Giant [3, 16]: 65
Plant response rating, Foxtail, Giant [3, 17]: 80
Plant response rating, Foxtail, Giant [3, 21]: 70
Plant response rating, Foxtail, Giant [3, 22]: 75
Plant response rating, Foxtail, Giant [3, 23]: 80
Foxtail, Giant plant response rating [3, 24]: 85
Foxtail, Giant plant response rating [3, 25]: 55
Johnsongrass plant response rating [4, 20]: 5
Plant response rating, Johnsongrass [4, 16]: 5
Plant response rating, Johnsongrass [4, 17]: 15
Plant response rating, Johnsongrass [4, 21]: 10
Plant response rating, Johnsongrass [4, 22]: 25
Plant response rating, Johnsongrass [4, 23]: 55
Johnsongrass plant response rating [4, 24]: 65
Johnsongrass plant response rating [4, 25]: 5
Lambsquarters plant response rating [5, 20]: 90
Plant response rating, Lambsquarters [5, 16]: 100
Plant response rating, Lambsquarters [5, 17]: 100
Plant response rating, Lambsquarters [5, 21]: 80
Plant response rating, Lambsquarters [5, 22]: 85
Plant response rating, Lambsquarters [5, 23]: 85
Lambsquarters plant response rating [5, 24]: 98
Lambsquarters plant response rating [5, 25]: 100
Morningglory plant response rating [6, 20]: 90
Plant response rating, Morningglory [6, 16]: 100
Plant response rating, Morningglory [6, 17]: 100
Plant response rating, Morningglory [6, 21]: 80
Plant response rating, Morningglory [6, 22]: 85
Plant response rating, Morningglory [6, 23]: 80
Morningglory plant response rating [6, 24]: 90
Morningglory plant response rating [6, 25]: 95
Oilseed Rape plant response rating [7, 20]: 0
Plant response rating, Oilseed Rape [7, 16]: 10
Plant response rating, Oilseed Rape [7, 17]: 0
Plant response rating, Oilseed Rape [7, 21]: 0
Plant response rating, Oilseed Rape [7, 22]: 0
Plant response rating, Oilseed Rape [7, 23]: 0
Oilseed Rape plant response rating [7, 24]: 5
Oilseed Rape plant response rating [7, 25]: 10
Waterhemp plant response rating [8, 20]: 98
Plant response rating, Waterhemp [8, 16]: 90
Plant response rating, Waterhemp [8, 17]: 100
Plant response rating, Waterhemp [8, 21]: 85
Plant response rating, Waterhemp [8, 22]: 90
Plant response rating, Waterhemp [8, 23]: 100
Waterhemp plant response rating [8, 24]: 100
Waterhemp plant response rating [8, 25]: 90
Wheat plant response rating [9, 20]: 0
Plant response rating, Wheat [9, 16]: 0
Plant response rating, Wheat [9, 17]: 0
Plant response rating, Wheat [9, 21]: 0
Plant response rating, Wheat [9, 22]: 0
Plant response rating, Wheat [9, 23]: 0
Wheat plant response rating [9, 24]: 40
Wheat plant response rating [9, 25]: 0
